Laboratory results published in PubChem BioAssay AID449764 (Southern Research Specialized Biocontainment Screening …, 2010).

Tested on: Mycobacterium tuberculosis H37Rv growth inhibition, no glycerol
Assay: Confirmatory growth inhibition assay, Mycobacterium tuberculosis H37Rv, absence of glycerol (AID 449764);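 further: growth read after 7 days of incubation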
Conditions: for IC90: measured here: IC90 growth inhibition

SMILES	IC50 [µM]	IC90 [µM]
O=C(CCl)NCc1cc(-c2ccc(Cl)cc2)no1	0.35	> 100
Cc1nc(-c2ccc(Cl)cc2)sc1C1(C)CC(c2ccc(C#N)cc2)=NO1 (stereo not given)	43.6	> 100
CCOC(=O)COc1cc(O)c2c(=O)cc(-c3ccccc3)oc2c1	1.38	2.03
Cc1cccc(/C=C2/S/C(=N/N=C3\CC4CCC3(C)C4(C)C)NC2=O)c1 (stereo not given)	25.6	> 100
C(=N\NC1=Nc2cccc3cccc1c23)/c1cccnc1	92.8	> 100
CCCCCCOC(=O)C(C#N)c1nc2ccccc2nc1N1CCN(CC)CC1 (stereo not given)	21.3	32.3
CC(C)(C)c1nn(-c2ccccc2)c2[nH]c(=O)c(CNCc3ccc4c(c3)OCO4)cc12	20.8	34.4
Cc1cc(C)n2nc(N)c(N=Nc3ccccc3)c2n1	2.59	3.46
CCSc1ncc(/C=N/Nc2ccccc2)n1C	82.6	> 100
CC/C(C)=N/NC(=S)NCc1ccco1	81.1	91.7
Cc1ccc(-c2noc(=O)n2CC(=O)c2ccc(Cl)cc2)cc1		> 50
COc1cc(C(=O)/C=C/c2cccnc2)c([N+](=O)[O-])cc1OC	17.5	26.2
O=C(NC(=S)Nc1cccc2cccnc12)c1ccccc1	56.9	> 100
COc1ccc2nc(NC(=O)C3CCCN(S(=O)(=O)c4cccs4)C3)sc2c1 (stereo not given)	14.9	24.2
Cc1ccc(C)c(N/C(N)=N/c2nc(C)cc(C)n2)c1	7.67	12.7
O=C1C=C(c2ccc3[nH]ccc3c2)C[C@@H](c2ccc(Cl)cc2)C1	84.5	> 100
Cc1ccc2c(c1)nnn2C1CCN(CC(=O)N2CCN(c3ccc(F)cc3)CC2)CC1	36.8	54.7
CC(=NCc1ccc2c(c1)OCO2)C1=C(O)c2ccccc2C1=O	< 0.2	1.4
CC1=NNC(=O)/C1=C\c1cn(-c2ccccc2)nc1-c1ccc(Cl)cc1	45.2	48.8
CC1=NN(c2ccccc2)C(=O)/C1=C\c1c(C)[nH]n(-c2ccccc2)c1=O		> 100
O=C(Nc1nc2ccc(F)cc2s1)C1CCN(S(=O)(=O)c2cc([N+](=O)[O-])ccc2Cl)CC1	12	17.6
COc1ccc(Cl)cc1C(=O)O/N=C(\N)c1ccccn1	76.4	> 100

SMILES	IC50 [µM]	IC90 [µM]
CCN(Cc1ccccc1)c1ccc(/C=N/N=C(N)N)cc1	18.8	28.1
O=C1NCC(O)=C1C=Nc1ccccc1O	5.54	7.6
Cc1[nH][nH]c(=O)c1C(c1ccc(-c2ccc(Cl)c(Cl)c2)o1)c1c(C)[nH][nH]c1=O	82.1	> 100
Oc1ccccc1Nc1nc(NCc2ccccc2)c2ccccc2n1	19.1	24.1
Cc1ccc(-c2c[n+](CC(=O)N3c4ccccc4Sc4ccccc43)c3n2CCC3)cc1	22.9	26.1
C/C(=N\Nc1ccc(S(=O)(=O)N2CCCCC2)cn1)c1cccc(Br)c1	39.2	> 100
CC(C)c1ccc2c(c1)CCC1C(C)(CN)CCCC21C (stereo not given)	17.7	26.7
CN(C)CCOc1ccc(-c2c(-c3ccsc3)sc3ccccc23)cc1	15.4	21
CC(C)Cn1c(N2CCN(C(=O)/C=C/c3ccccc3)CC2)nc2ccccc21	34	47.4
CCCc1ccc(NC(=O)C2CCN(c3cnccn3)CC2)cc1	67.2	82.7
O=C(NC(=S)N1CCc2ccccc21)c1ccc(Br)o1	10.5	15.5
CC1CCC(NC(=O)c2cc3c(s2)CCCC3)CC1 (stereo not given)	67.7	> 100
Cc1cc(N2CCN(c3ccc(C(F)(F)F)cc3[N+](=O)[O-])CC2)c2ccccc2n1	22.2	24.9
O=C1NN(c2ccc(Br)cc2)C(=O)/C1=C\c1ccc(O)cc1O		> 100
COc1cc(N=Nc2ccc3ccccc3c2)ccc1O	39.7	59.1
CCN(C[C@H]1N[C@@](Cc2ccccc2)(C(=O)OC)[C@H]2C(=O)N(Cc3ccccc3)C(=O)[C@@H]12)C(=O)Nc1ccc(C(F)(F)F)cc1	8.06	9.81
CCOc1ccc(-c2cc(CCCC(=O)NCCC(C)C)no2)cc1	22.6	25.7
NC(=O)N=Nc1c2[nH]c3ccccc3nc-2c2ccccc12	5.96	8.44
O=C(Nc1cccnc1Cl)c1cc(-c2ccco2)on1	38.4	> 100
CC(C)(Oc1ccc(Cl)cc1)C(=O)OCC(=O)N1CCN(c2ccccc2)CC1	52	80.9
CCOC(=O)COc1ccc(/C=C2\NC(=S)N(CC)C2=O)cc1	3.1	3.44
CC(=O)N(Cc1ccc(F)cc1)C1=C(NCCc2ccccc2)C(=O)c2ccccc2C1=O	10.2	16.6

SMILES	IC50 [µM]	IC90 [µM]
CCOc1cc2c3c(c1)C1(C(=O)N3C(C)(C)CC2C)C(C#N)=C(N)N2C(=C1C#N)Nc1ccccc12 (stereo not given)	37.8	> 100
O=C1Nc2ccc(Br)cc2C12NNc1ccccc1O2 (stereo not given)	44.1	62.9
COc1ccc(CNC[C@@H](CCCCN(C)Cc2ccc(OC)cc2)N2C[C@H](c3ccccc3)N(CCc3ccc(Cl)c(Cl)c3)C(=O)C2=O)cc1	10.5	14
COc1cc2cc(C(c3nnnn3C(C)(C)C)N3CCc4ccccc43)c(=O)[nH]c2cc1OC (stereo not given)		> 100
CCN(CC)S(=O)(=O)c1ccc2oc(SCC(=O)Nc3cc(C)on3)nc2c1	10.8	16.6
c1ccc(-n2cnc3cc(NCc4cccs4)ccc32)cc1	89	> 100
COc1cc2c(cc1OC)C(c1cc(Br)ccc1F)N(C(=O)CCl)CC2 (stereo not given)	16.6	23
Cc1nn(Cc2ccccc2Cl)c2sc(C(=O)NCCCn3ccnc3)cc12	37.4	56
Cc1ccc2[nH]c3c(N4CCN(Cc5ccccc5)CC4)ncnc3c2c1	25.1	46
O=C(CCl)Nc1cccn2ncnc12	3.32	7.56
CCCCCCCNC1=CC(=O)CC(c2ccccc2)C1 (stereo not given)	39.7	61.3
Cc1nn(-c2ccccc2)c(N)c1N=Nc1ccc(Cl)cc1	52.1	> 100
CCOC(=O)c1sc2ncnc(NCC(c3cccs3)N(C)C)c2c1C (stereo not given)	42	57
Cc1cccc(NC(=O)CCSc2nnc(Cc3ccccc3)o2)c1	38.1	> 100
CCCCOCCCn1c(-c2ccco2)nc2nc3ccccc3nc21	99.9	> 100
Nc1ccc(S(=O)(=O)Nc2cnc3ccccc3n2)cc1	23.7	27.3
COCc1nnc(NC(=O)C2CC(=O)N(c3ccc(C)c(Cl)c3)C2)s1 (stereo not given)	76.5	> 100
CCCCCCCNC(=O)C1(CC2CC(c3cccc(Br)c3)=NO2)CCNCC1 (stereo not given)	52.1	80.4
COC(=O)[C@@H](NC(=O)c1cc(COc2cncc(Cl)c2)on1)c1ccccc1	2.93	3.31
COc1ccc(C2Oc3ccccc3C3=C2C(c2cccs2)n2ncnc2N3)cc1 (stereo not given)	78.9	> 100
CCOc1ccc(C(=O)CCN2CCCCCC2)cc1	23.7	26.2
COc1ccccc1C1=NOC(COC(=O)c2ccc([N+](=O)[O-])cc2)C1 (stereo not given)	47.7	> 100

SMILES	IC50 [µM]	IC90 [µM]
Cc1cc(Br)ccc1NC(=O)c1cnc(N2CCN(c3ccccn3)CC2)c2ccccc12	2.34	3.49
CCCOC(=O)c1ccc(-c2ccc(C=O)o2)cc1	21.1	> 100
Cc1sc2ncnc(N3CCC(C(=O)N(CC(C)C)c4nc5ccccc5s4)CC3)c2c1C		> 100
CC1(C)Cc2c(sc(NC(=O)c3ccc(C(=O)c4ccccc4)cc3)c2C(N)=O)C(C)(C)N1	22.9	> 50
Cc1ccc(OCc2cc(C(=O)N(C)Cc3cnc4ccccn34)no2)cc1C	35.1	> 100
O=C(c1cc([N+](=O)[O-])cc([N+](=O)[O-])c1)N(Cc1nnc(-c2ccccc2Cl)o1)C1CC1	15.8	23.5
Cc1ccccc1NC1=C/C(=N\S(=O)(=O)c2cccs2)c2ccccc2C1=O	11.3	12.3
C[C@@H]1CCCCCCCCC(=O)OCCN[C@H](C)CCCCCCCCC(=O)OCCN[C@H](C)CCCCCCCCC(=O)OCCN1	31.8	43.3
COc1cccc(NC(=O)C2CCN(Cc3cnn(-c4ccccc4)c3-n3cccc3)CC2)c1	54.9	90
COc1cccc(NC(=O)CNC(=O)Cn2cnc3sc4c(c3c2=O)CCCC4)c1	66.7	> 100
COc1ccc(SN=C2C(C)=CC(=O)C=C2C)cc1	22.4	24.9
COc1ccccc1/C(C)=N/NC(=S)NCc1ccccc1	23.6	27.1
C(=N\Nc1ccc2ccccc2n1)/c1ccc2c(c1)OCCO2	5.03	7.13
CCc1ccc(NCc2ccc(OC)c(Cn3ccnc3)c2)cc1	21.5	23.7
Cc1cc([N+](=O)[O-])c2ccccc2[n+]1[O-]	8.67	13.8
COCCn1nnnc1C(c1cc2cc(OC)ccc2[nH]c1=O)N1CCC(Cc2ccccc2)CC1 (stereo not given)	89.8	> 100
COc1ccccc1C1CC(c2c(-c3ccccc3)c3cc(Cl)ccc3[nH]c2=O)=NN1S(C)(=O)=O (stereo not given)		> 100
CC(C)(O)[C@H]1O[C@H]2CC[C@@]3(C)[C@@](O)(CC[C@H]4Cc5c([nH]c6ccccc56)[C@@]43C)C2=CC1=O	48.7	> 100
CSc1cccc(CNC(=O)C2CCC(=O)N(Cc3cccc(C(F)(F)F)c3)C2)c1 (stereo not given)	36.9	41.8
Cc1nc([N+](=O)[O-])c(Br)n1CC(=O)c1ccc2ccccc2c1	11.2	12.7
COc1ccc(NS(=O)(=O)c2ccc3nc(COc4cccc5ccccc45)[nH]c3c2)cc1	62.3	> 100
Cn1c(=O)c2c3c(sc2n2c(SCC(N)=O)nnc12)CC(C(C)(C)C)CC3 (stereo not given)	24.7	41.7
